Experiment: xn = mol fraction of the nth substance listed
Conditions: 101 kPa

CCCC[n+]1ccn(C)c1.CS(=O)(=O)[O-] + O
Conditions	electrical conductivity [S/m]	viscosity [mPa·s]
298.15 K, x1 = 0.004	1.17	–
298.15 K, x1 = 0.008	2.08	–
298.15 K, x1 = 0.019	3.25	–
298.15 K, x2 = 0.5596	–	50
298.15 K, x2 = 0.785	1.15	–
298.15 K, x2 = 0.8016	–	13.45
298.15 K, x2 = 0.8521	–	8.87
298.15 K, x2 = 0.861	2.33	–
298.15 K, x2 = 0.892	2.95	–
298.15 K, x2 = 0.9004	–	5.45
298.15 K, x2 = 0.9254	–	4.05
298.15 K, x2 = 0.929	3.58	–
298.15 K, x2 = 0.9503	–	2.73
298.15 K, x2 = 0.968	3.96	–
299.15 K, x1 = 0.004	1.2	–
299.15 K, x1 = 0.019	3.33	–
299.15 K, x2 = 0.704	0.601	–
299.15 K, x2 = 0.785	1.18	–
299.15 K, x2 = 0.796	1.29	–
299.15 K, x2 = 0.861	2.39	–
299.15 K, x2 = 0.929	3.67	–
299.15 K, x2 = 0.968	4.04	–
300.15 K, x1 = 0.008	2.17	–
300.15 K, x1 = 0.019	3.4	–
300.15 K, x2 = 0.704	0.634	–
300.15 K, x2 = 0.785	1.23	–
300.15 K, x2 = 0.796	1.3	–
300.15 K, x2 = 0.861	2.5	–
300.15 K, x2 = 0.892	3.02	–
300.15 K, x2 = 0.929	3.75	–
300.15 K, x2 = 0.951	4.23	–
300.15 K, x2 = 0.968	4.13	–
301.15 K, x1 = 0.004	1.27	–
301.15 K, x1 = 0.008	2.23	–
301.15 K, x1 = 0.019	3.5	–
301.15 K, x2 = 0.704	0.661	–
301.15 K, x2 = 0.785	1.28	–
301.15 K, x2 = 0.796	1.36	–
301.15 K, x2 = 0.892	3.11	–
301.15 K, x2 = 0.929	3.87	–
301.15 K, x2 = 0.951	4.33	–
301.15 K, x2 = 0.968	4.05	–
302.15 K, x1 = 0.004	1.29	–
302.15 K, x1 = 0.008	2.26	–
302.15 K, x2 = 0.704	0.663	–
302.15 K, x2 = 0.796	1.41	–
302.15 K, x2 = 0.892	3.2	–
302.15 K, x2 = 0.929	3.97	–
302.15 K, x2 = 0.951	4.43	–
302.15 K, x2 = 0.968	4.28	–
303.15 K, x1 = 0.004	1.31	–
303.15 K, x1 = 0.008	2.31	–
303.15 K, x1 = 0.019	3.66	–
303.15 K, x2 = 0.785	1.39	–
303.15 K, x2 = 0.796	1.47	–
303.15 K, x2 = 0.892	3.3	–
303.15 K, x2 = 0.929	4.16	–
303.15 K, x2 = 0.951	4.54	–
303.15 K, x2 = 0.968	4.41	–
304.15 K, x1 = 0.004	1.34	–
304.15 K, x1 = 0.008	2.37	–
304.15 K, x1 = 0.019	3.73	–
304.15 K, x2 = 0.704	0.753	–
304.15 K, x2 = 0.785	1.44	–
304.15 K, x2 = 0.861	2.79	–
304.15 K, x2 = 0.892	3.4	–
304.15 K, x2 = 0.929	4.22	–
304.15 K, x2 = 0.951	4.61	–
304.15 K, x2 = 0.968	4.55	–
305.15 K, x1 = 0.008	2.4	–
305.15 K, x1 = 0.019	3.77	–
305.15 K, x2 = 0.785	1.46	–
305.15 K, x2 = 0.796	1.56	–
305.15 K, x2 = 0.892	3.51	–
305.15 K, x2 = 0.929	4.35	–
305.15 K, x2 = 0.951	4.74	–
305.15 K, x2 = 0.968	4.51	–
306.15 K, x1 = 0.008	2.45	–
306.15 K, x1 = 0.019	3.85	–
306.15 K, x2 = 0.704	0.815	–
306.15 K, x2 = 0.785	1.49	–
306.15 K, x2 = 0.796	1.62	–
306.15 K, x2 = 0.892	3.6	–
306.15 K, x2 = 0.929	4.49	–
306.15 K, x2 = 0.951	5.02	–
306.15 K, x2 = 0.968	4.73	–
307.15 K, x1 = 0.004	1.42	–
307.15 K, x1 = 0.019	4.02	–
307.15 K, x2 = 0.704	0.851	–
307.15 K, x2 = 0.796	1.64	–
307.15 K, x2 = 0.861	3.04	–
307.15 K, x2 = 0.892	3.74	–
307.15 K, x2 = 0.929	4.59	–
307.15 K, x2 = 0.951	4.98	–
307.15 K, x2 = 0.968	4.78	–
308.15 K, x1 = 0.004	1.44	–
308.15 K, x1 = 0.008	2.62	–
308.15 K, x2 = 0.704	0.882	–
308.15 K, x2 = 0.785	1.64	–
308.15 K, x2 = 0.796	1.69	–
308.15 K, x2 = 0.892	3.83	–
308.15 K, x2 = 0.929	4.72	–
308.15 K, x2 = 0.951	5.05	–
309.15 K, x1 = 0.004	1.47	–
309.15 K, x1 = 0.008	2.62	–
309.15 K, x1 = 0.019	4.14	–
309.15 K, x2 = 0.704	0.921	–
309.15 K, x2 = 0.861	3.17	–
309.15 K, x2 = 0.892	3.93	–
309.15 K, x2 = 0.929	4.79	–
309.15 K, x2 = 0.951	5.22	–
310.15 K, x1 = 0.004	1.5	–
310.15 K, x1 = 0.008	2.66	–
310.15 K, x2 = 0.704	0.956	–
310.15 K, x2 = 0.785	1.74	–
310.15 K, x2 = 0.796	1.8	–
310.15 K, x2 = 0.929	4.93	–
310.15 K, x2 = 0.951	5.35	–
311.15 K, x1 = 0.004	1.54	–
311.15 K, x1 = 0.008	2.73	–
311.15 K, x1 = 0.019	4.21	–
311.15 K, x2 = 0.704	0.987	–
311.15 K, x2 = 0.785	1.79	–
311.15 K, x2 = 0.796	1.86	–
311.15 K, x2 = 0.892	4.16	–
311.15 K, x2 = 0.929	5.04	–
311.15 K, x2 = 0.951	5.47	–
311.15 K, x2 = 0.968	5.2	–
312.15 K, x1 = 0.004	1.57	–
312.15 K, x1 = 0.008	2.75	–
312.15 K, x1 = 0.019	4.39	–
312.15 K, x2 = 0.704	1.06	–
312.15 K, x2 = 0.785	1.86	–
312.15 K, x2 = 0.861	3.44	–
312.15 K, x2 = 0.892	4.28	–
312.15 K, x2 = 0.929	5.15	–
312.15 K, x2 = 0.951	5.65	–
312.15 K, x2 = 0.968	5.28	–
313.15 K, x1 = 0.004	1.58	–
313.15 K, x1 = 0.008	2.8	–
313.15 K, x1 = 0.019	4.46	–
